11 molecules from PubChem BioAssay (NCI) can be followed below.

Several values for one entry are separate records, joined by “and”; a condition that tells them apart may be missing. Identical values can stand only once.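 Growth conditions: 96-well plates. Treatment: test compound, 48 hours, 5 concentrations. Analysis: linear interpolation between bracketing concentrations; unreached endpoints set to highest concentration. Abbreviation: GI50, concentration required for 50% inhibition of growth. Definition used: TGI = concentration required for complete inhibition of growth.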

Some test systems named below: CAKI-1 renal; CCRF-CEM leukemia; OVCAR-3 ovarian; SF-268 CNS; SF-539 CNS; SK-MEL-28 melanoma; SK-OV-3 ovarian; TK-10 renal; U251 CNS; UO-31 renal.
What all share (experiment): NCI anticancer screen, dose series, 48 h

Consider `CC(C)C[C@H](NC(=O)Cn1cccc(CNC(=O)c2ccccc2)c1=O)B(O)O`, for which the GI50 was 3.7 µM in the assay with CAKI-1 renal; 0.374 µM in the assay with CCRF-CEM leukemia; 0.214 µM in the assay on OVCAR-3 ovarian; 0.4 µM in the assay on SF-268 CNS; 0.133 µM in the assay with SF-539 CNS; 0.207 µM with SK-MEL-28 melanoma. For the same molecule, the GI50 in the assay on SK-OV-3 ovarian is 1.2 µM; with TK-10 renal, 0.55 µM; in the assay with U251 CNS, 0.517 µM; in the assay on UO-31 renal, 4 µM. Besides, the TGI in the assay with CAKI-1 renal is 44.9 µM; in the assay with CCRF-CEM leukemia, more than 20.1 µM; in the assay on OVCAR-3 ovarian it was 0.674 µM; in the assay with SF-268 CNS, 2.95 µM; in the assay on SF-539 CNS, 0.454 µM; in the assay with SK-MEL-28 melanoma, 13 µM. For the same molecule, the TGI in the assay with SK-OV-3 ovarian came to 41 µM; with TK-10 renal it was 4.75 µM; in the assay with U251 CNS, 19.2 µM; with UO-31 renal, 23 µM.

Turning to `COc1cc(F)c(F)cc1C(=O)c1cnc(NC2CCN(S(C)(=O)=O)CC2)nc1N`, the GI50 in the assay on CAKI-1 renal was 3.79 µM; in the assay with CCRF-CEM leukemia it was 4.86 µM; in the assay on OVCAR-3 ovarian it was 4.48 µM; in the assay with SF-268 CNS it was 5.65 µM; in the assay with SF-539 CNS, 3.85 µM; with SK-MEL-28 melanoma it was 4.08 µM. Besides, the GI50 was 10 µM with SK-OV-3 ovarian, 2.92 µM in the assay with TK-10 renal, 2.42 µM in the assay on U251 CNS and 4.75 µM in the assay with UO-31 renal. For the same molecule, the TGI in the assay on CAKI-1 renal was more than 25 µM; in the assay with CCRF-CEM leukemia it was 18.8 µM; in the assay on OVCAR-3 ovarian, 15.7 µM; with SF-268 CNS, 20 µM; with SF-539 CNS, 11.1 µM; in the assay with SK-MEL-28 melanoma it was more than 25 µM. Moreover, the TGI in the assay with SK-OV-3 ovarian was more than 25 µM; with TK-10 renal, 19.3 µM; in the assay with U251 CNS it was 24.8 µM; with UO-31 renal, more than 19.8 µM.

As to `Cc1ccc2oc(=O)c3c(O)c4cccc(OC5OC(C)C6O[C@@H](c7ccccc7)OC6C5OC5OC(C)C(O)C(O)C5O)c4c4oc(=O)c1c2c34` (some centres not stated), the GI50 is 0.0415 µM in the assay on CAKI-1 renal; 0.331 µM in the assay on SK-MEL-28 melanoma; 0.371 µM in the assay on SK-OV-3 ovarian; 0.461 µM with TK-10 renal; 0.0825 µM in the assay with U251 CNS; 0.4 µM in the assay with UO-31 renal. In addition, the TGI in the assay on CCRF-CEM leukemia is 0.365 µM and 0.363 µM; with OVCAR-3 ovarian, 3.96 µM; in the assay with SF-268 CNS it was 1.59 µM and 1.71 µM; with SF-539 CNS it was 1.34 µM and 1.39 µM; with SK-MEL-28 melanoma, 1.88 µM and 2.01 µM; in the assay on SK-OV-3 ovarian it was 0.967 µM and 2.41 µM. The TGI in the assay on TK-10 renal is 3.81 µM and 8.95 µM; in the assay with U251 CNS it was 1.16 µM and 1.58 µM; in the assay on UO-31 renal it was 1.99 µM and 7.47 µM.

For `CC12CCC(=O)C(O1)C1C(=O)c3ccc4c(ccc5ccccc54)c3C(=O)C12` (configuration not stated), the GI50 with CAKI-1 renal is 1.82 µM; in the assay with CCRF-CEM leukemia, 3.77 µM; in the assay with OVCAR-3 ovarian, 1.2 µM; in the assay on SF-268 CNS it was 15.3 µM; in the assay on SF-539 CNS it was 18.8 µM; with SK-MEL-28 melanoma it was 29.1 µM. In addition, the GI50 in the assay with SK-OV-3 ovarian was 11.5 µM; in the assay on TK-10 renal, 3.47 µM; in the assay with U251 CNS, 18.8 µM; in the assay on UO-31 renal, 6.69 µM. Moreover, the TGI in the assay on CAKI-1 renal is 6.63 µM; with CCRF-CEM leukemia, more than 100 µM; in the assay with OVCAR-3 ovarian it was 2.64 µM; with SF-268 CNS, 36.1 µM; with SF-539 CNS, 45.3 µM; with SK-MEL-28 melanoma, more than 100 µM. Also, the figures for the TGI in the assay with SK-OV-3 ovarian, in the assay on TK-10 renal and in the assay on U251 CNS were more than 39.1 µM, 7.89 µM and 35.6 µM, respectively.

As for `O=C1C=CC(=O)c2c1ccc1c3ccccc3n(Cc3ccccc3)c21`, the TGI was 32 µM in the assay with CAKI-1 renal; 10.9 µM with CCRF-CEM leukemia; 33 µM with OVCAR-3 ovarian; more than 77.6 µM in the assay on SF-268 CNS; more than 74.1 µM in the assay with SF-539 CNS; 54 µM in the assay with SK-MEL-28 melanoma. Also, the TGI in the assay with SK-OV-3 ovarian is more than 100 µM; in the assay on TK-10 renal, 35.1 µM; with U251 CNS, more than 100 µM; with UO-31 renal, 50.1 µM.

With `O=C1OC(=O)C23CSCC12C1C=CC3O1` (configuration not stated), the TGI with CAKI-1 renal, in the assay on CCRF-CEM leukemia, with OVCAR-3 ovarian, with SF-268 CNS, in the assay on SF-539 CNS and in the assay with SK-MEL-28 melanoma was more than 100 µM each time. Moreover, the TGI in the assay on SK-OV-3 ovarian, in the assay with TK-10 renal, in the assay with U251 CNS and in the assay on UO-31 renal was more than 100 µM in each case.

Turning to `CCC1CCCCN1CC(C(C)=O)C(c1ccccc1)c1c(O)c2ccccc2oc1=O` (configuration not stated), the TGI in the assay with CAKI-1 renal, in the assay on CCRF-CEM leukemia, with OVCAR-3 ovarian, in the assay on SF-268 CNS, in the assay with SF-539 CNS and in the assay on SK-MEL-28 melanoma was more than 100 µM each time. Besides, the TGI in the assay with SK-OV-3 ovarian, in the assay on TK-10 renal, with U251 CNS and with UO-31 renal was more than 100 µM in each case.

As to `O=C1OCC2=C1C(c1cccc(C(F)(F)F)c1)c1cc3c(cc1N2CCO)OCCO3` (configuration not stated), the GI50 in the assay on CAKI-1 renal was 1.15 µM; in the assay with CCRF-CEM leukemia, 1.5 µM; in the assay on OVCAR-3 ovarian it was 1.24 µM; in the assay with SF-268 CNS it was 2.54 µM; with SF-539 CNS, 0.849 µM; with SK-MEL-28 melanoma, 1.71 µM. Besides, the GI50 in the assay on SK-OV-3 ovarian was 1.29 µM; in the assay on TK-10 renal, more than 33.3 µM; in the assay on U251 CNS it was 1.36 µM; in the assay with UO-31 renal, 1.95 µM. Moreover, the TGI is more than 33.3 µM with CAKI-1 renal; more than 33.3 µM in the assay on CCRF-CEM leukemia; more than 33.3 µM with OVCAR-3 ovarian; more than 33.3 µM in the assay on SF-268 CNS; 3.11 µM with SF-539 CNS; more than 33.3 µM with SK-MEL-28 melanoma. The TGI in the assay with SK-OV-3 ovarian, with TK-10 renal, in the assay on U251 CNS and with UO-31 renal was more than 33.3 µM throughout.

For the molecule `CC(=O)c1c[nH]c2ccc(-c3ccnc(Nc4ccc(NC(=O)C5CCCC5)c(CN5CCOCC5)c4)n3)cc12`, the GI50 in the assay with CAKI-1 renal was 0.0168 µM; with CCRF-CEM leukemia, 0.0294 µM; in the assay with OVCAR-3 ovarian it was 0.0267 µM; with SF-268 CNS, 0.033 µM; with SF-539 CNS, 0.0229 µM; in the assay on SK-MEL-28 melanoma it was 0.0404 µM. Also, the GI50 in the assay with SK-OV-3 ovarian was 0.0454 µM; in the assay on TK-10 renal, 0.0274 µM; in the assay with U251 CNS, 0.0316 µM; in the assay with UO-31 renal, 0.0273 µM. Further, the TGI with CAKI-1 renal was 0.561 µM; in the assay with OVCAR-3 ovarian, 0.678 µM; with SF-268 CNS it was 0.159 µM; with SF-539 CNS, 0.0681 µM; in the assay on SK-MEL-28 melanoma it was 0.27 µM; in the assay on SK-OV-3 ovarian, more than 100 µM. Moreover, the TGI amounted to 0.406 µM in the assay with TK-10 renal and 0.108 µM with UO-31 renal.

Turning to `O=[N+]([O-])c1cc(/C=N\NS(=O)(=O)c2ccc(Cl)cc2)c(O)c([N+](=O)[O-])c1`, the TGI in the assay on CAKI-1 renal is more than 100 µM; in the assay on CCRF-CEM leukemia, 78.5 µM; in the assay on OVCAR-3 ovarian, 54.1 µM; in the assay on SF-268 CNS, more than 100 µM; in the assay on SF-539 CNS, 44.2 µM; with SK-MEL-28 melanoma, more than 100 µM. Moreover, the TGI was 83.5 µM in the assay on SK-OV-3 ovarian, more than 100 µM in the assay with TK-10 renal, 54.3 µM in the assay with U251 CNS and more than 100 µM in the assay on UO-31 renal.

`O=C(c1ccccc1)c1nnn(Cc2ccccc2Cn2nnc(C(=O)c3ccccc3)c2C(=O)c2ccccc2)c1C(=O)c1ccccc1`: the TGI with CAKI-1 renal, in the assay with CCRF-CEM leukemia, with OVCAR-3 ovarian, in the assay with SF-268 CNS, in the assay with SF-539 CNS and in the assay on SK-MEL-28 melanoma was more than 100 µM in each case. For the same molecule, the TGI in the assay with SK-OV-3 ovarian, with TK-10 renal, in the assay on U251 CNS and in the assay on UO-31 renal was more than 100 µM in each case.
